According to ChEMBL document CHEMBL1909294, “Translating clinical findings into knowledge in drug safety evaluation--drug induced liver injury prediction system (DILIps)” (PLoS Comput Biol, 2011):

Columns and labels:
[1] = tested on: Hepatotoxicity;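 as to HepSE cholecystitis: Cholecystitis-related hepatic side effect score drawn from the DILIps (drug-induced liver injury prediction) training data set; call rule not given here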;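 as to HepSE cirrhosis: cirrhosis hepatic side effect score taken from the DILIps (drug-induced liver injury prediction) training set; call rule not given here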;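 as to HepSE elevated liver function tests: hepatic side effect score for raised liver function tests, as recorded in the DILIps training set used for predicting drug-induced liver injury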;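 as to HepSE hepatitis: Hepatitis-related hepatic side effect score taken from the training data of DILIps, a prediction system for drug-induced liver injury; call rule not given here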;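 as to HepSE hepatomegaly: hepatic side effect score for hepatomegaly, taken from the training set of the DILIps drug-induced liver injury prediction system; call rule not given here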;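 as to HepSE liver fatty: hepatic side effect score for fatty liver, taken from the DILIps training set for predicting drug-induced liver injury; call rule not given here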
[2] = tested on: Hepatotoxicity; remark: listed apart in the source;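 as to HepSE cholecystitis: Cholecystitis-related hepatic side effect score drawn from the DILIps (drug-induced liver injury prediction) training data set; call rule not given here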;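 as to HepSE cirrhosis: cirrhosis hepatic side effect score taken from the DILIps (drug-induced liver injury prediction) training set; call rule not given here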;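 as to HepSE elevated liver function tests: hepatic side effect score for raised liver function tests, as recorded in the DILIps training set used for predicting drug-induced liver injury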;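 as to HepSE hepatitis: Hepatitis-related hepatic side effect score taken from the training data of DILIps, a prediction system for drug-induced liver injury; call rule not given here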;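 as to HepSE hepatomegaly: hepatic side effect score for hepatomegaly, taken from the training set of the DILIps drug-induced liver injury prediction system; call rule not given here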;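 as to HepSE liver fatty: hepatic side effect score for fatty liver, taken from the DILIps training set for predicting drug-induced liver injury; call rule not given here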
[3] = tested on: Hepatotoxicity; remark: listed apart in the source;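 as to HepSE cholecystitis: Cholecystitis-related hepatic side effect score drawn from the DILIps (drug-induced liver injury prediction) training data set; call rule not given here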;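 as to HepSE cirrhosis: cirrhosis hepatic side effect score taken from the DILIps (drug-induced liver injury prediction) training set; call rule not given here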;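 as to HepSE elevated liver function tests: hepatic side effect score for raised liver function tests, as recorded in the DILIps training set used for predicting drug-induced liver injury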;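 as to HepSE hepatitis: Hepatitis-related hepatic side effect score taken from the training data of DILIps, a prediction system for drug-induced liver injury; call rule not given here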;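 as to HepSE hepatomegaly: hepatic side effect score for hepatomegaly, taken from the training set of the DILIps drug-induced liver injury prediction system; call rule not given here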;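 as to HepSE liver fatty: hepatic side effect score for fatty liver, taken from the DILIps training set for predicting drug-induced liver injury; call rule not given here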
[4] = tested on: Hepatotoxicity; remark: listed apart in the source;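 as to HepSE cholecystitis: Cholecystitis-related hepatic side effect score drawn from the DILIps (drug-induced liver injury prediction) training data set; call rule not given here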;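 as to HepSE elevated liver function tests: hepatic side effect score for raised liver function tests, as recorded in the DILIps training set used for predicting drug-induced liver injury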;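 as to HepSE hepatitis: Hepatitis-related hepatic side effect score taken from the training data of DILIps, a prediction system for drug-induced liver injury; call rule not given here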;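 as to HepSE hepatomegaly: hepatic side effect score for hepatomegaly, taken from the training set of the DILIps drug-induced liver injury prediction system; call rule not given here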;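 as to HepSE liver fatty: hepatic side effect score for fatty liver, taken from the DILIps training set for predicting drug-induced liver injury; call rule not given here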
[5] = tested on: Hepatotoxicity; remark: listed apart in the source
[6] = tested on: Hepatotoxicity; remark: listed apart in the source
[7] = tested on: Hepatotoxicity; remark: listed apart in the source
[8] = tested on: Hepatotoxicity; remark: listed apart in the source
[9] = tested on: Hepatotoxicity; remark: listed apart in the source
[10] = tested on: Hepatotoxicity; remark: listed apart in the source
[11] = tested on: Hepatotoxicity; remark: listed apart in the source
[12] = tested on: Hepatotoxicity; remark: listed apart in the source
[13] = tested on: Hepatotoxicity; remark: listed apart in the source
[14] = tested on: Hepatotoxicity; remark: listed apart in the source

Row | SMILES | HepSE_liver fatty [1] | HepSE_cholecystitis [2] | HepSE_hepatitis [3] | HepSE_elevated liver function tests [4] | HepSE_hepatic necrosis [5] | HepSE_cholelithiasis [6] | HepSE_bilirubinemia [7] | HepSE_hepatomegaly [8] | HepSE_cirrhosis [9] | HepSE_liver disease [10] | HepSE_liver function tests abnormal [11] | HepSE_Combined Scores [12] | HepSE_hepatic failure [13] | HepSE_jaundice [14] | other results
1 | CN1CCC(=C2c3ccccc3CCc3sccc32)CC1 [PIZOTYLINE] | 0 | 0 | 0 | 0 | 0 | 0 | 0 | 0 | 0 | 0 | 0 | 0 | 0 | 0 | –
2 | COc1cc([C@@H]2c3cc4c(cc3[C@H](O)[C@H]3COC(=O)[C@H]23)OCO4)cc(OC)c1OC [PODOFILOX] | 0 | 0 | 0 | 0 | 0 | 0 | 0 | 0 | 0 | 0 | 0 | 0 | 0 | 0 | –
3 | CN1C(CSCC(F)(F)F)Nc2cc(Cl)c(S(N)(=O)=O)cc2S1(=O)=O (configuration not stated) [POLYTHIAZIDE] | 0 | 0 | 0 | 0 | 0 | 0 | 0 | 0 | 0 | 0 | 0 | 1 | 0 | 1 | –
4 | CC[C@@H]([C@H](C)O)n1ncn(-c2ccc(N3CCN(c4ccc(OC[C@@H]5CO[C@@](Cn6cncn6)(c6ccc(F)cc6F)C5)cc4)CC3)cc2)c1=O [POSACONAZOLE] | 0 | 0 | 1 | 0 | 0 | 0 | 1 | 1 | 0 | 0 | 1 | 6 | 1 | 1 | –
5 | [Cl-].[K+] [POTASSIUM CHLORIDE] | 0 | 0 | 0 | 0 | 0 | 0 | 0 | 0 | 0 | 0 | 0 | 0 | 0 | 0 | –
6 | C[n+]1ccccc1/C=N/O [PRALIDOXIME] | 0 | 0 | 0 | 0 | 0 | 0 | 0 | 0 | 0 | 0 | 0 | 0 | 0 | 0 | –
7 | CCCN[C@H]1CCc2nc(N)sc2C1 [PRAMIPEXOLE] | – | – | – | – | – | – | – | – | – | – | – | – | – | – | HepSE_liver fatty ([1]; Liver): 0; HepSE_cholecystitis ([2]; Liver): 1; HepSE_hepatitis ([3]; Liver): 0; HepSE_elevated liver function tests ([4]; Liver): 0; HepSE_hepatic necrosis ([5]; Liver): 0; HepSE_cholelithiasis ([6]; Liver): 1; HepSE_bilirubinemia ([7]; Liver): 0; HepSE_hepatomegaly ([8]; Liver): 0; HepSE_cirrhosis ([9]; Liver): 0; HepSE_liver disease ([10]; Liver): 0; HepSE_liver function tests abnormal ([11]; Liver): 0; HepSE_Combined Scores ([12]; Liver): 2; HepSE_hepatic failure ([13]; Liver): 0; HepSE_jaundice ([14]; Liver): 0
8 | CC[C@H](C)C(=O)O[C@H]1C[C@H](O)C=C2C=C[C@H](C)[C@H](CC[C@@H](O)C[C@@H](O)CC(=O)O)[C@H]21 [PRAVASTATIN] | 0 | 0 | 1 | 0 | 1 | 0 | 0 | 0 | 1 | 0 | 0 | 4 | 0 | 1 | –
9 | COc1cc2nc(N3CCN(C(=O)c4ccco4)CC3)nc(N)c2cc1OC [PRAZOSIN] | 0 | 0 | 0 | 0 | 0 | 0 | 0 | 0 | 0 | 0 | 0 | 0 | 0 | 0 | –
10 | CCOC(=O)O[C@]1(C(=O)COC(=O)CC)CC[C@H]2[C@@H]3CCC4=CC(=O)C=C[C@]4(C)[C@H]3[C@@H](O)C[C@@]21C [PREDNICARBATE] | 0 | 0 | 0 | 0 | 0 | 0 | 0 | 0 | 0 | 0 | 0 | 0 | 0 | 0 | –
11 | C[C@]12C=CC(=O)C=C1CC[C@@H]1[C@@H]2[C@@H](O)C[C@@]2(C)[C@H]1CC[C@]2(O)C(=O)CO [PREDNISOLONE] | 0 | 0 | 0 | 0 | 0 | 0 | 0 | 1 | 0 | 0 | 0 | 1 | 0 | 0 | –
12 | C[C@]12C=CC(=O)C=C1CC[C@@H]1[C@@H]2C(=O)C[C@@]2(C)[C@H]1CC[C@]2(O)C(=O)CO [PREDNISONE] | 0 | 0 | 0 | 0 | 0 | 0 | 0 | 0 | 0 | 0 | 0 | 0 | 0 | 0 | –
13 | COc1cc(NC(C)CCCN)c2ncccc2c1 (configuration not stated) [PRIMAQUINE] | 0 | 0 | 0 | 0 | 0 | 0 | 0 | 0 | 0 | 0 | 0 | 0 | 0 | 0 | –
